Source: BindingDB's records for PubMed 39167893 (University of Petroleum and Energy Studies)
pIC50: −log10 of the molar value.

Target: KRas/Son of Sevenless Homolog 1 (Homo sapiens, UniProt P01116+Q07889)
Assay: Inhibition of KRAS G12D mutant/SOS1 (unknown origin) interaction by TR-FRET assay

Sequence of KRas/Son of Sevenless Homolog 1 (P01116 whole entry G12D): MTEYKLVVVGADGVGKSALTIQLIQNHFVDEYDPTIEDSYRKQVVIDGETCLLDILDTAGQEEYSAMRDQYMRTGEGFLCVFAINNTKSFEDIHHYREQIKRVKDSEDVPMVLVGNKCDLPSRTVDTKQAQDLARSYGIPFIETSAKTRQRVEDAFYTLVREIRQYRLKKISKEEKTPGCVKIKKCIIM
Sequence of KRas/Son of Sevenless Homolog 1 (Q07889 whole entry): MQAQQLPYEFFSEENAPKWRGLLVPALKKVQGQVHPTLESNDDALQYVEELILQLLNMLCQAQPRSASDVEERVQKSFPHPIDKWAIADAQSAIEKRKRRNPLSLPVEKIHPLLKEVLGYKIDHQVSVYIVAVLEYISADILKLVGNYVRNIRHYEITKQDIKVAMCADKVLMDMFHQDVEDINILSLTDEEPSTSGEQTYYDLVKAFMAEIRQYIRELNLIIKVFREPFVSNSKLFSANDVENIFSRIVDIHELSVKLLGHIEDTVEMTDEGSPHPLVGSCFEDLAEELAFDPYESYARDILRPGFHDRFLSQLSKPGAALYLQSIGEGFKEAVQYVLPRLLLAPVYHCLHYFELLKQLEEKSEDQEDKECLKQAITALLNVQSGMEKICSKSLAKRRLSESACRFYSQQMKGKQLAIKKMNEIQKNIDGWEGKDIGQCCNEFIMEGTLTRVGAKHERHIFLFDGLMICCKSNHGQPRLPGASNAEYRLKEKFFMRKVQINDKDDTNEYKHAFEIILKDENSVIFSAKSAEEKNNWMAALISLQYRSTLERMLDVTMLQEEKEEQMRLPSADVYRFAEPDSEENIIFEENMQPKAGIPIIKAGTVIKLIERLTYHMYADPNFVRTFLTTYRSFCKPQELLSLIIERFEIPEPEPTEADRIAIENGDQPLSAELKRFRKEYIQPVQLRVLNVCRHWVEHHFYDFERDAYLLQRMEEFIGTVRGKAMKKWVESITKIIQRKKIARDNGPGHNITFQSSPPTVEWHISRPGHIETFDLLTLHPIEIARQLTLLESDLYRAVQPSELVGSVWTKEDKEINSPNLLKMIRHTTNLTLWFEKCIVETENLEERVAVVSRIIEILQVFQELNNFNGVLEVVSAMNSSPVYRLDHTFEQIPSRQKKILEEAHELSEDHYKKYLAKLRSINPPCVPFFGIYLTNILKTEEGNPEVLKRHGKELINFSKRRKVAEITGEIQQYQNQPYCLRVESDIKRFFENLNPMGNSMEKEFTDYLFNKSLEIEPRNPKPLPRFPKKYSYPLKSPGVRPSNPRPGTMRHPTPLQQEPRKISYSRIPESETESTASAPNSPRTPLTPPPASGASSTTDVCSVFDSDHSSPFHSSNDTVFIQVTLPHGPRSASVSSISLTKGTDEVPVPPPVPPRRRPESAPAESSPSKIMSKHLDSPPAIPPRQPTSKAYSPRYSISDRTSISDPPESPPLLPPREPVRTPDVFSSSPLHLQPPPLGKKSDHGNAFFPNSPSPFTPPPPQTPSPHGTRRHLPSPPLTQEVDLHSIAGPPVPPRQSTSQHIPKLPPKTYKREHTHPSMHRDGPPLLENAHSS

pIC50: 6.35
SMILES: Cn1cnc(Cn2ccc3ccc(CNCc4[nH]c5ccccc5c4[C@H]4NC(=O)c5ccc(O)cc54)cc32)c1
